According to the NIST ThermoML archive (doi:10.1016/j.jct.2016.03.028):
± gives the expanded uncertainty stated by the source.

Experiment: xn = mol fraction of the nth substance listed
Conditions: Liquid; for speed of sound: 100 kPa, Frequency=3 MHz, Sing-around technique in a fixed-path interferometer; for mass density: 101.3 kPa, Vibrating tube method

CCCOCCO [2-propoxyethanol] + CCOS(=O)(=O)[O-].CCn1cc[n+](C)c1
speed of sound (298.15 K, x2 = 0): 1299.9 ± 1.5 m/s | speed of sound (298.15 K, x2 = 0.0496): 1322.2 ± 1.6 m/s | speed of sound (298.15 K, x2 = 0.0901): 1339.6 ± 1.6 m/s | speed of sound (298.15 K, x2 = 0.1345): 1358 ± 1.6 m/s | speed of sound (298.15 K, x2 = 0.1738): 1374 ± 1.6 m/s | speed of sound (298.15 K, x2 = 0.2568): 1407.7 ± 1.6 m/s | speed of sound (298.15 K, x2 = 0.3477): 1444.5 ± 1.6 m/s | speed of sound (298.15 K, x2 = 0.4406): 1482.1 ± 1.6 m/s | speed of sound (298.15 K, x2 = 0.5477): 1525.4 ± 1.6 m/s | speed of sound (298.15 K, x2 = 0.6478): 1565.2 ± 1.6 m/s | speed of sound (298.15 K, x2 = 0.7729): 1612.3 ± 1.6 m/s | speed of sound (298.15 K, x2 = 0.8263): 1630.9 ± 1.6 m/s | speed of sound (298.15 K, x2 = 0.8757): 1647 ± 1.6 m/s | speed of sound (298.15 K, x2 = 0.9346): 1664.4 ± 1.6 m/s | mass density (298.15 K, x2 = 0): 908.31 ± 2 kg/m3 | mass density (298.15 K, x2 = 0.0496): 936.15 ± 2 kg/m3 | mass density (298.15 K, x2 = 0.0901): 957.3 ± 2 kg/m3 | mass density (298.15 K, x2 = 0.1345): 979.08 ± 2 kg/m3 | mass density (298.15 K, x2 = 0.1738): 997.17 ± 2 kg/m3 | mass density (298.15 K, x2 = 0.2568): 1032.34 ± 2 kg/m3 | mass density (298.15 K, x2 = 0.3477): 1066.65 ± 2 kg/m3 | mass density (298.15 K, x2 = 0.4406): 1097.96 ± 2 kg/m3 | mass density (298.15 K, x2 = 0.5477): 1130.29 ± 2 kg/m3 | mass density (298.15 K, x2 = 0.6478): 1157.57 ± 2 kg/m3 | mass density (298.15 K, x2 = 0.7729): 1188.39 ± 2 kg/m3 | mass density (298.15 K, x2 = 0.8263): 1200.6 ± 2 kg/m3 | mass density (298.15 K, x2 = 0.8757): 1211.4 ± 2 kg/m3 | mass density (298.15 K, x2 = 0.9346): 1223.63 ± 2 kg/m3 | speed of sound (308.15 K, x2 = 0): 1265 ± 1.5 m/s | speed of sound (308.15 K, x2 = 0.0496): 1288.6 ± 1.5 m/s | speed of sound (308.15 K, x2 = 0.0901): 1306.8 ± 1.6 m/s | speed of sound (308.15 K, x2 = 0.1345): 1326.1 ± 1.6 m/s | speed of sound (308.15 K, x2 = 0.1738): 1342.8 ± 1.6 m/s | speed of sound (308.15 K, x2 = 0.2568): 1377.8 ± 1.6 m/s | speed of sound (308.15 K, x2 = 0.3477): 1415.6 ± 1.6 m/s | speed of sound (308.15 K, x2 = 0.4406): 1454.2 ± 1.6 m/s | speed of sound (308.15 K, x2 = 0.5477): 1498.4 ± 1.6 m/s | speed of sound (308.15 K, x2 = 0.6478): 1539 ± 1.6 m/s | speed of sound (308.15 K, x2 = 0.7729): 1587 ± 1.6 m/s | speed of sound (308.15 K, x2 = 0.8263): 1606 ± 1.6 m/s | speed of sound (308.15 K, x2 = 0.8757): 1622.3 ± 1.6 m/s | speed of sound (308.15 K, x2 = 0.9346): 1639.9 ± 1.6 m/s | mass density (308.15 K, x2 = 0): 899.5 ± 2 kg/m3 | mass density (308.15 K, x2 = 0.0496): 927.63 ± 2 kg/m3 | mass density (308.15 K, x2 = 0.0901): 948.98 ± 2 kg/m3 | mass density (308.15 K, x2 = 0.1345): 970.94 ± 2 kg/m3 | mass density (308.15 K, x2 = 0.1738): 989.17 ± 2 kg/m3 | mass density (308.15 K, x2 = 0.2568): 1024.6 ± 2 kg/m3 | mass density (308.15 K, x2 = 0.3477): 1059.1 ± 2 kg/m3 | mass density (308.15 K, x2 = 0.4406): 1090.57 ± 2 kg/m3 | mass density (308.15 K, x2 = 0.5477): 1123.06 ± 2 kg/m3 | mass density (308.15 K, x2 = 0.6478): 1150.45 ± 2 kg/m3 | mass density (308.15 K, x2 = 0.7729): 1181.41 ± 2 kg/m3 | mass density (308.15 K, x2 = 0.8263): 1193.67 ± 2 kg/m3 | mass density (308.15 K, x2 = 0.8757): 1204.51 ± 2 kg/m3 | mass density (308.15 K, x2 = 0.9346): 1216.76 ± 2 kg/m3 | speed of sound (318.15 K, x2 = 0): 1230.1 ± 1.5 m/s | speed of sound (318.15 K, x2 = 0.0496): 1254.9 ± 1.5 m/s | speed of sound (318.15 K, x2 = 0.0901): 1274 ± 1.5 m/s | speed of sound (318.15 K, x2 = 0.1345): 1294.2 ± 1.5 m/s | speed of sound (318.15 K, x2 = 0.1738): 1311.6 ± 1.6 m/s | speed of sound (318.15 K, x2 = 0.2568): 1347.8 ± 1.6 m/s | speed of sound (318.15 K, x2 = 0.3477): 1386.9 ± 1.6 m/s | speed of sound (318.15 K, x2 = 0.4406): 1426.5 ± 1.6 m/s | speed of sound (318.15 K, x2 = 0.5477): 1471.8 ± 1.6 m/s | speed of sound (318.15 K, x2 = 0.6478): 1513.2 ± 1.6 m/s | speed of sound (318.15 K, x2 = 0.7729): 1562 ± 1.6 m/s | speed of sound (318.15 K, x2 = 0.8263): 1581.3 ± 1.6 m/s | speed of sound (318.15 K, x2 = 0.8757): 1597.9 ± 1.6 m/s | speed of sound (318.15 K, x2 = 0.9346): 1615.7 ± 1.6 m/s | mass density (318.15 K, x2 = 0): 890.56 ± 2 kg/m3 | mass density (318.15 K, x2 = 0.0496): 919 ± 2 kg/m3 | mass density (318.15 K, x2 = 0.0901): 940.58 ± 2 kg/m3 | mass density (318.15 K, x2 = 0.1345): 962.75 ± 2 kg/m3 | mass density (318.15 K, x2 = 0.1738): 981.14 ± 2 kg/m3 | mass density (318.15 K, x2 = 0.2568): 1016.84 ± 2 kg/m3 | mass density (318.15 K, x2 = 0.3477): 1051.57 ± 2 kg/m3 | mass density (318.15 K, x2 = 0.4406): 1083.21 ± 2 kg/m3 | mass density (318.15 K, x2 = 0.5477): 1115.85 ± 2 kg/m3 | mass density (318.15 K, x2 = 0.6478): 1143.37 ± 2 kg/m3 | mass density (318.15 K, x2 = 0.7729): 1174.46 ± 2 kg/m3 | mass density (318.15 K, x2 = 0.8263): 1186.78 ± 2 kg/m3 | mass density (318.15 K, x2 = 0.8757): 1197.67 ± 2 kg/m3 | mass density (318.15 K, x2 = 0.9346): 1209.98 ± 2 kg/m3
